In BindingDB's records for doi:10.1016/j.bmcl.2003.08.082 (The University of Huddersfield, 2003):

Biological target: Beta-lactamase (Enterobacter cloacae, UniProt P05364)
Assay: Inhibitor activity against Beta-lactamase, derived from the Gram negative bacteria Enterobacter cloacae at pH 7
Conditions: read-out: kon (M-1-s-1)

Beta-lactamase, sequence (P05364 whole entry): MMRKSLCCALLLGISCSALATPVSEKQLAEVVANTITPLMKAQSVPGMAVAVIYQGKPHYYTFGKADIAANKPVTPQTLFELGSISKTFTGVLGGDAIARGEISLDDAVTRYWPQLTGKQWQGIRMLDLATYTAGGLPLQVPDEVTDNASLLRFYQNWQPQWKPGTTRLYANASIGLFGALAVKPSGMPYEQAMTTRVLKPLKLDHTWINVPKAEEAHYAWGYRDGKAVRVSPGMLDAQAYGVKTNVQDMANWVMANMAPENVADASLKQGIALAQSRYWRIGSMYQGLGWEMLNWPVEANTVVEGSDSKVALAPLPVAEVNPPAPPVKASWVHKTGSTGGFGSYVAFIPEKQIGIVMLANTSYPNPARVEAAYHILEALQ

Structure (SMILES): CC(C)C1CN(C(=O)c2ccccc2)S1(=O)=O (configuration not stated)
- kon: 0.07 M⁻¹ s⁻¹

Structure (SMILES): O=C(c1ccccc1)N1CCS1(=O)=O
- kon: 163 M⁻¹ s⁻¹
